# Reference: PMC7694948, “Mitochondrial Targeting in an Anti-Austerity Approach Involving Bioactive Metabolites Isolated from the Marine-Derived Fungus Aspergillus sp” (Marine Drugs, 2020)
# Where two headings read alike, the source gives them in different places.
# What was measured:
# K562 cell lines = system: K562 cell lines; design: method as in PMID 26479318; conditions: K562, general culture conditions; cited from earlier work
# [1] = system: mitochondrial membrane potential of human pancreatic carcinoma PANC-1 cells; assay: Mitochondrial membrane potential (JC-1 MitoMP Detection Kit); assay type: cell-based; conditions: PANC-1 adapted to glucose-deficient medium; 1 h treatment; JC-1 Red/Green ratio
# Protocol: Figure 2 Effect of compounds 1 and 2 on the mitochondrial membrane potential of human pancreatic carcinoma PANC-1 cells. PANC-1 cells that adapted to glucose-deficient medium in the 96-well plates were treated with the indicated concentrations of the compounds for 1 h. Next, JC-1 working solution was added for measuring the mitochondrial membrane potential, and the plate was incubated for 30 min. The fluorescence intensity of the cells was measured using a Tecan Infinite M1000 microplate reader at Ex 485 nm and Em 535 nm (Green color fluorescence) and Ex 535 nm and Em 595 nm (Red color fluorescence). Differences were considered significant at * p < 0.05.
# The mitochondrial membrane potential of PANC-1 cells was evaluated using the JC-1 MitoMP Detection Kit (Dojindo Laboratories) following the manufacturer’s instructions. […] The fluorescence intensity of the cells was assessed using an Infinite M1000 microplate reader (Tecan Group Ltd., Mannedorf, Switzerland) at Ex 485 nm and Em 535 nm (Green color fluorescence) and Ex 535 nm and Em 595 nm (Red color fluorescence). The ratio of the two fluorescence intensities (Red vs. Green) was then calculated.
# lung cancer cells = system: lung cancer cells; design: method as in PMID 26479318, PMID 21725807; conditions: general culture conditions; cited from earlier work
# SUPB15 cell lines = system: SUPB15 cell lines; design: method as in PMID 28810515; conditions: SUPB15, general culture conditions; cited from earlier work
# colon cancer cells = system: colon cancer cells; design: method as in PMID 26707141, PMID 20837130; conditions: general culture conditions; cited from earlier work
# [2] = system: oxygen consumption by PANC-1 cells; assay: Oxygen consumption (Oxygen Consumption Rate Assay Kit); assay type: cell-based, human; conditions: PANC-1 in general glucose medium
# Protocol: Figure 3 Effect of compounds 1 and 2 on the oxygen consumption by PANC-1 cells. The precultured PANC-1 cells in the 96-well plates were incubated in general culture medium for 12 h at 37 °C. The medium was then replaced with fresh medium; subsequently, the test compound was added, followed by addition of the phosphorescent probe to measure the oxygen consumption. The signals were measured with a Tecan Infinite M1000 microplate reader by using the time-resolved mode. Differences were considered significant at * p < 0.05. CCCP: carbonyl cyanide m-chlorophenylhydrazone.
# The oxygen consumption of PANC-1 cells was analyzed using the Oxygen Consumption Rate Assay Kit (Cayman Chemical) following the manufacturer’s instructions. Briefly, precultured PANC-1 cells (8.0 × 10^4 cells) in black/clear bottom 96-well plates (Corning Incorporated) were incubated for 12 h at 37 °C in general glucose medium. […] The signals were measured using an Infinite M1000 microplate reader (Tecan Group Ltd., Zurich, Switzrland) in the time-resolved mode at Ex 380 nm and Em 650 nm for 180 min, with a 1-min time interval. Linear regression was applied after subtracting the blank, and the oxygen consumption rate was determined by the slope of each signal profile.
# [3] = target: T1, Mitochondrial complex IV (cytochrome c oxidase) (Bos taurus, UniProt P00396+P00415+P68530); assay: MitoCheck Complex Activity Assay, complex IV; assay type: biochemical; conditions: bovine heart mitochondria
# T1 construct: enzymatic activity of each complex derived from bovine heart mitochondria; purchased Cayman Chemical; host or cells: bovine heart mitochondria (tissue-derived, supplied in kit)
# Protocol: (§1) The kits measured the enzymatic activity of each complex derived from bovine heart mitochondria in the following systems: Mitochondrial complex I (NADH oxidase/coenzyme Q reductase) activity was determined by measuring the decrease in NADH oxidation, which is reflected by a decrease in absorbance at 340 nm. Mitochondrial complex II (succinate dehydrogenase/coenzyme Q reductase) activity was assessed on the basis of the reduction rate of 2, 6-dichlorophenolindophenol (protonated by reduced coenzyme Q), which is reflected by a decrease in absorbance at 600 nm. Mitochondrial complex III (coenzyme Q cytochrome c oxidoreductase) activity was determined on the basis of the cytochrome c reduction rate, which is reflected by an increase in absorbance at 550 nm. Mitochondrial complex IV (cytochrome c oxidase) activity was determined by measuring the cytochrome c oxidation rate, which is reflected by a decrease in absorbance at 550 nm. Mitochondrial complex V (F1F0 ATP synthase) activity was determined by the NADH oxidation rate, which can be monitored at 340 nm.
# [4] = system: hepatocellular carcinoma cells; design: method as in PMID 28042511, PMID 29710489; conditions: general culture conditions; cited from earlier work
# [5] = system: human pancreatic carcinoma PANC-1 cells; assay: Cytotoxicity against PANC-1 cells under glucose-deficient or general culture conditions (WST-8); assay type: cell-based; conditions: for IC50: Homo sapiens, 12 h treatment, WST-8; for S.I. (selectivity index): difference in IC50 values for general culture and glucose-deficient media
# Protocol: PANC-1 cells were maintained in DMEM supplemented with heat-inactivated 10% FBS and kanamycin (50 µg/mL) and grown at 37 °C in a 5% CO2 atmosphere. […] The general culture medium—that is, basal medium containing 10% FBS and […] glucose (final concentration, 25 mM)—was used for comparison. The assay was performed as previously described. Briefly, PANC-1 cells (1 × 10^4 cells/100 µL in 96-well plastic plates) were preincubated in DMEM containing 10% FBS for 24 h. The medium was then changed with either the general glucose medium or glucose-deficient medium to induce adaption to nutrient starvation. After 12-h incubation, serially diluted samples were added to the media. Then, the cells were incubated for an additional 12 h at 37 °C in a 5% CO2 atmosphere. Cell proliferation was identified using WST-8. The IC50 values were determined by linear interpolation of the growth inhibition curve. We assessed the selectivity of the antiproliferative activity (S.I.) on the basis of the difference in the IC50 values for the general culture and glucose-deficient media.
# [6] = system: glucose-6-phosphate dehydrogenase; design: method as in PMID 26479318; conditions: against breast cancer cells; cited from earlier work
# CCRF-ADR5000 cells = system: CCRF-ADR5000 cells; design: method as in PMID 29707146; conditions: CCRF-ADR5000, general culture conditions; cited from earlier work
# breast cancer cells = system: breast cancer cells; design: method as in PMID 25574462; conditions: general culture conditions; cited from earlier work
# [7] = system: nasopharyngeal carcinoma cells; design: method as in PMID 27694907; conditions: general culture conditions; cited from earlier work
# [8] = target: Mitochondrial complex III (coenzyme Q cytochrome c oxidoreductase) (Bos taurus, UniProt P00125+P00157+P13272); assay: MitoCheck Complex Activity Assay, complex III; assay type: biochemical, bovine
# Protocol: as §1, with “The inhibitory activity of compound 1 on the mitochondrial electron transport chain (complexes I–V) was analyzed using MitoCheck Complex Activity Assay kits (Cayman Chemical) following the manufacturer’s instructions. The” for “The”
# [9] = target: T2, Mitochondrial complex II (succinate dehydrogenase/coenzyme Q reductase) (Bos taurus, UniProt P31039+P35720+Q3T189+Q95123); assay: MitoCheck Complex Activity Assay, complex II; assay type: biochemical, bovine; conditions: for IC50: bovine heart mitochondria
# T2 construct: enzymatic activity of each complex derived from bovine heart mitochondria; purchased Cayman Chemical; host or cells: bovine heart mitochondria (tissue-derived, supplied in kit)
# Protocol: as §1, with “The inhibitory activity of compound 1 on the mitochondrial electron transport chain (complexes I–V) was analyzed using MitoCheck Complex Activity Assay kits (Cayman Chemical) following the manufacturer’s instructions. The” for “The”
# NALM6 cell lines = system: NALM6 cell lines; design: method as in PMID 28810515; conditions: NALM6, general culture conditions; cited from earlier work
# cervical carcinoma cells = system: cervical carcinoma cells; design: method as in PMID 24071573; conditions: general culture conditions; cited from earlier work
# U937 cell lines = system: U937 cell lines; design: method as in PMID 20796195; conditions: U937, general culture conditions; cited from earlier work
# [10] = system: oxygen consumption by PANC-1 cells; design: method as in PMID 32002808, PMID 26204821; conditions: cited from earlier work
# NCI-H460 cells = system: NCI-H460 cells; design: method as in PMID 18758101; conditions: 100 µg/mL (352 µM); cited from earlier work
# K-562 cells = system: K-562 cells; design: method as in PMID 18758101; conditions: cited from earlier work
# P-388 cells = system: P-388 cells; design: method as in PMID 18758101; conditions: cited from earlier work
# [11] = target: Mitochondrial complex V (F1F0 ATP synthase) (Bos taurus, UniProt P00829+P00847+P19483+P32876); assay: MitoCheck Complex Activity Assay, complex V; assay type: biochemical, bovine
# Protocol: as §1, with “The inhibitory activity of compound 1 on the mitochondrial electron transport chain (complexes I–V) was analyzed using MitoCheck Complex Activity Assay kits (Cayman Chemical) following the manufacturer’s instructions. The” for “The”
# MCF-7 cells = system: MCF-7 cells; design: method as in PMID 18758101; conditions: 100 µg/mL (352 µM); cited from earlier work
# HL-60 cells = system: HL-60 cells; design: method as in PMID 18758101; conditions: cited from earlier work
# [12] = target: Mitochondrial complex I (NADH oxidase/coenzyme Q reductase) (Bos taurus, UniProt P03887+P17694+P25708+P42026); assay: MitoCheck Complex Activity Assay, complex I; assay type: biochemical, bovine
# Protocol: as §1, with “The inhibitory activity of compound 1 on the mitochondrial electron transport chain (complexes I–V) was analyzed using MitoCheck Complex Activity Assay kits (Cayman Chemical) following the manufacturer’s instructions. The” for “The”
# A-549 cells = system: A-549 cells; design: method as in PMID 18758101; conditions: cited from earlier work
# SF-268 cells = system: SF-268 cells; design: method as in PMID 18758101; conditions: 100 µg/mL (352 µM); cited from earlier work
# [13] = PANC-1, glucose-deficient medium, 12 h adaptation
# [14] = conversion of 10 µg/mL, read-out: IC50
# Chain of Mitochondrial complex III (coenzyme Q cytochrome c oxidoreductase) (P00125 85-325): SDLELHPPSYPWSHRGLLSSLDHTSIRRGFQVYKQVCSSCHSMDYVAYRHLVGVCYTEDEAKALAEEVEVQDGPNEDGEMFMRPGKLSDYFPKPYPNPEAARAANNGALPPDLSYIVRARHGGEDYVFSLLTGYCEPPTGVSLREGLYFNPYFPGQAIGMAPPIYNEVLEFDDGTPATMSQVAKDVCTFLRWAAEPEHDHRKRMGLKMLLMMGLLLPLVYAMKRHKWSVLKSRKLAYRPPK
# Chain of Mitochondrial complex III (coenzyme Q cytochrome c oxidoreductase) (P00157 whole entry): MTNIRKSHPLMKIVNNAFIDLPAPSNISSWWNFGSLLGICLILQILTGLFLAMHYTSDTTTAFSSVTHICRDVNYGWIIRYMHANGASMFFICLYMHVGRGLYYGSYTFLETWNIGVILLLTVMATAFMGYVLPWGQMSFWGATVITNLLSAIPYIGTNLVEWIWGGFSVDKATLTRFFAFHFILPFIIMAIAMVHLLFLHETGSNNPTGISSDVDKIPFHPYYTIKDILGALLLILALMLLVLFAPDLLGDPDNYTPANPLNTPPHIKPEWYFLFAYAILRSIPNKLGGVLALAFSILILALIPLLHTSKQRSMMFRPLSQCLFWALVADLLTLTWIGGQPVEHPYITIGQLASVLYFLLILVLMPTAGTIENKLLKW
# Chain of Mitochondrial complex III (coenzyme Q cytochrome c oxidoreductase) (P13272 whole entry): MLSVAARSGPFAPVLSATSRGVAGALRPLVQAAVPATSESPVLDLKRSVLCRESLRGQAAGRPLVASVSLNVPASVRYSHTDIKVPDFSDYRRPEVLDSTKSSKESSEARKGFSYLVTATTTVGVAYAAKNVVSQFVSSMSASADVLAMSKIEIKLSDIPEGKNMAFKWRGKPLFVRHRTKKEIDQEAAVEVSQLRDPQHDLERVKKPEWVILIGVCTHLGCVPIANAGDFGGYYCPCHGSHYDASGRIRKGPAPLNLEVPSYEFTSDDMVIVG
# T2 sequence (P31039 44-665): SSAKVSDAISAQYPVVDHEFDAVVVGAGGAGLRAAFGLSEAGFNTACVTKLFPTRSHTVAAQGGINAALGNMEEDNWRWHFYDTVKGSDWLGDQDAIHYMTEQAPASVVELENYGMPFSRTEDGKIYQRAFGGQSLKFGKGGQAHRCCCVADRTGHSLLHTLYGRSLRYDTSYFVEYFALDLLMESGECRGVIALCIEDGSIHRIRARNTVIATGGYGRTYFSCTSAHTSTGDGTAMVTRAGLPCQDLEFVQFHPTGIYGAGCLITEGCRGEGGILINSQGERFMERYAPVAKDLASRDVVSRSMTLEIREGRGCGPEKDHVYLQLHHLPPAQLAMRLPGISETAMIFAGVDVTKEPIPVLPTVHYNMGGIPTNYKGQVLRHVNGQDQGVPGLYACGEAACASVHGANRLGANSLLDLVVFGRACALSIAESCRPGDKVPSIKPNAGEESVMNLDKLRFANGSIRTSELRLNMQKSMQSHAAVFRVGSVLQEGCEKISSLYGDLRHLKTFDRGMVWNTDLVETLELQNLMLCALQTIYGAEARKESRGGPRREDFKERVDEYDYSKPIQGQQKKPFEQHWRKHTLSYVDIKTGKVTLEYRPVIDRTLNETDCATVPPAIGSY
# T2 sequence (Q3T189 29-280): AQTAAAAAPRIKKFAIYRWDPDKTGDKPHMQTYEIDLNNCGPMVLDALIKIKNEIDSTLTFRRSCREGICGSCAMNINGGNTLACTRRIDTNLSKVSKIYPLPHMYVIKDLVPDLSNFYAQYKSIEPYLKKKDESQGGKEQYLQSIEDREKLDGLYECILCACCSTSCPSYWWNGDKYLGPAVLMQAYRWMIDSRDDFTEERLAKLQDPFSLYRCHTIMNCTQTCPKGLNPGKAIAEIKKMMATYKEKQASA
# T2 sequence (P35720 30-169): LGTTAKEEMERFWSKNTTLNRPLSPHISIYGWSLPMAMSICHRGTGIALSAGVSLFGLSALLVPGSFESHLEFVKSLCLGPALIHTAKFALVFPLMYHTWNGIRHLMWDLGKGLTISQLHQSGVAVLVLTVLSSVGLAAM
# T2 sequence (Q95123 56-158): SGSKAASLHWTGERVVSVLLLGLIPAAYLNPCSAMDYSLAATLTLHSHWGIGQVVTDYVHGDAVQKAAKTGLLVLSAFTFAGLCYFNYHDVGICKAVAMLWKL
smiles,measurement,setting,value
"COc1cc(O)c2c(c1)C(=O)c1cc(C)cc(O)c1C2=O [Compound 1, physcion]",IC50,K562 cell lines,12.5 µM
same,effect on mitochondrial membrane potential,[1],dose-dependently decrease
same,IC50,lung cancer cells,15.1 to 35.1 µM
same,IC50,SUPB15 cell lines,5 µM
same,IC50,colon cancer cells,10 to 50 µM
same,effect on oxygen consumption,[2],inhibit oxygen consumption to a similar extent as antimycin A
same,IC50,[3],34 ± 0.3 µM
same,IC50,[4],10 µM
same,IC50,"[5]; PANC-1, general glucose medium",1017 ± 0.05 µM
same,IC50,[5]; [13],6 ± 0.1 µM
same,S.I. (selectivity index),[5],169.5
same,inhibition of glucose-6-phosphate dehydrogenase,[6],specific inhibitor
same,IC50,CCRF-ADR5000 cells,74.8 µM
same,IC50,breast cancer cells,45.4 µM
same,IC50,[7],20 µM
same,inhibition at 100 µM,[8],9%
same,IC50,[8]; bovine heart mitochondria,> 100 µM
same,IC50,[9],90 ± 0.11 µM
same,IC50,NALM6 cell lines,5 µM
same,IC50,cervical carcinoma cells,100 µM
same,IC50,U937 cell lines,27.9 µM
"O=C(CC(=O)C(F)(F)F)c1cccs1 [thenoyltrifluoroacetone, reference compound]",IC50,[9],68 ± 0.01 µM
"CCCCCC[C@H]1C(=O)O[C@H](C)[C@H](NC(=O)c2cccc(NC=O)c2O)C(=O)O[C@@H](C)[C@@H]1OC(=O)CC(C)C [Antimycin A, reference compound]",effect on oxygen consumption,[10],reduces oxygen consumption
same,IC50,"[5]; PANC-1, general glucose medium",288 ± 0.5 µM
same,IC50,[5]; [13],0.0003 µM
same,S.I. (selectivity index),[5],"960,000"
same,IC50,[8],0.03 ± 0.01 µM
"C/C=C/C=C/c1cc2c(C=O)c(O)c(CC=C(C)C)cc2o1 [Compound 2, 2-(2′,3-epoxy-1′,3′,5′-heptatrienyl)-6-hydroxy-5-(3-methyl-2-butenyl) benzaldehyde]",cytotoxic effect,NCI-H460 cells,more than 90%
same,effect on mitochondrial membrane potential,[1],dose-dependently decrease
same,IC50,K-562 cells,higher than 10 µg/mL
same,IC50,K-562 cells; [14],> 35.2 µM
same,IC50,P-388 cells,higher than 10 µg/mL
same,IC50,P-388 cells; [14],> 35.2 µM
same,inhibition of complex V,[11]; 100 µM,not inhibited
same,IC50,[11]; bovine heart mitochondria,> 100 µM
same,effect on oxygen consumption,[2],inhibit oxygen consumption to a similar extent as antimycin A
same,IC50,[3],20 ± 0.3 µM
same,IC50,"[5]; PANC-1, general glucose medium",859 ± 1 µM
same,IC50,[5]; [13],1.7 ± 0.05 µM
same,selective growth-inhibitory activity under glucose-deficient vs general culture conditions,[5]; PANC-1,505 fold
same,cytotoxic effect,MCF-7 cells,more than 90%
same,IC50,HL-60 cells,higher than 10 µg/mL
same,IC50,HL-60 cells; [14],> 35.2 µM
same,inhibition at 100 µM,[8],6%
same,IC50,[8]; bovine heart mitochondria,> 100 µM
same,inhibition at 100 µM,[9]; 100 µM,24%
same,IC50,[9],> 100 µM
same,inhibition at 100 µM,[12]; 100 µM,18%
same,IC50,[12]; bovine heart mitochondria,> 100 µM
same,IC50,A-549 cells,higher than 10 µg/mL
same,IC50,A-549 cells; [14],> 35.2 µM
same,cytotoxic effect,SF-268 cells,more than 90%
COC(=O)[C@@]12Oc3ccc(-c4ccc5c(c4O)C(O)C4=C(O)C[C@H](C)[C@@H](O)[C@]4(C(=O)OC)O5)c(O)c3C(=O)C1=C(O)C[C@H](C)[C@H]2O (stereo partly drawn) [secalonic acid D],effect on oxygen consumption,[10],increase the oxygen consumption
"N#CC(C#N)=NNc1cccc(Cl)c1 [CCCP, carbonyl cyanide m-chlorophenylhydrazone]",effect on oxygen consumption,[10],increase the oxygen consumption
